The supplement of paper PMC8882468

These compounds were tested on HCI-001 (organoid from a triple-negative breast cancer xenograft) (assay: CTG-3D luminescence at 96 h relative to day-0 seeding control (ratio to day 0); higher = more growth / less cytotoxicity; PDxO 3D drug screen, 96 h, CTG-3D normalised to day-0 seeding control.). Conditions: 0.005 µM; days in culture: 327.

SMILES	CTG-3D luminescence at 96 h
CC(C)(C(=O)NCC(F)(F)C(F)(F)F)C(=O)N[C@@H]1C(=O)Nc2ccccc2-c2ccccc21	1.54
CCN(c1cc(C#CCN2CCOCC2)cc(C(=O)NCc2c(C)cc(C)[nH]c2=O)c1C)[C@H]1CC[C@H](N(C)CCOC)CC1	2.09
NC(=O)Nc1cc(-c2cccc(F)c2)sc1C(=O)N[C@H]1CCCNC1 [AZD7762]	1.85
O=C(/C=C/c1cccnc1)NCCCCC1CCN(C(=O)c2ccccc2)CC1 [FK866]	0.617
CCc1c2c(nc3ccc(O)cc13)-c1cc3c(c(=O)n1C2)COC(=O)[C@]3(O)CC [SN-38]	1.83
CCN1CCN(Cc2ccc(Nc3ncc(F)c(-c4cc(F)c5nc(C)n(C(C)C)c5c4)n3)nc2)CC1 [abemaciclib]	1.87
C=CCn1c(=O)c2cnc(Nc3ccc(N4CCN(C)CC4)cc3)nc2n1-c1cccc(C(C)(C)O)n1 [adavosertib]	1.68

Same assay, conditions: 0.005 µM; days in culture: 346

SMILES	CTG-3D luminescence at 96 h
CC(C)(C(=O)NCC(F)(F)C(F)(F)F)C(=O)N[C@@H]1C(=O)Nc2ccccc2-c2ccccc21	1.17
CCN(c1cc(C#CCN2CCOCC2)cc(C(=O)NCc2c(C)cc(C)[nH]c2=O)c1C)[C@H]1CC[C@H](N(C)CCOC)CC1	1.21
NC(=O)Nc1cc(-c2cccc(F)c2)sc1C(=O)N[C@H]1CCCNC1 [AZD7762]	1.23
O=C(/C=C/c1cccnc1)NCCCCC1CCN(C(=O)c2ccccc2)CC1 [FK866]	0.416
CCc1c2c(nc3ccc(O)cc13)-c1cc3c(c(=O)n1C2)COC(=O)[C@]3(O)CC [SN-38]	0.977
CCN1CCN(Cc2ccc(Nc3ncc(F)c(-c4cc(F)c5nc(C)n(C(C)C)c5c4)n3)nc2)CC1 [abemaciclib]	1.18
C=CCn1c(=O)c2cnc(Nc3ccc(N4CCN(C)CC4)cc3)nc2n1-c1cccc(C(C)(C)O)n1 [adavosertib]	1.22

Same assay, conditions: 0.005 µM; days in culture: 364

SMILES	CTG-3D luminescence at 96 h
CC(C)(C(=O)NCC(F)(F)C(F)(F)F)C(=O)N[C@@H]1C(=O)Nc2ccccc2-c2ccccc21	1.38
CCN(c1cc(C#CCN2CCOCC2)cc(C(=O)NCc2c(C)cc(C)[nH]c2=O)c1C)[C@H]1CC[C@H](N(C)CCOC)CC1	1.76
NC(=O)Nc1cc(-c2cccc(F)c2)sc1C(=O)N[C@H]1CCCNC1 [AZD7762]	1.51
O=C(/C=C/c1cccnc1)NCCCCC1CCN(C(=O)c2ccccc2)CC1 [FK866]	0.913
CCc1c2c(nc3ccc(O)cc13)-c1cc3c(c(=O)n1C2)COC(=O)[C@]3(O)CC [SN-38]	1.19
CCN1CCN(Cc2ccc(Nc3ncc(F)c(-c4cc(F)c5nc(C)n(C(C)C)c5c4)n3)nc2)CC1 [abemaciclib]	1.38
C=CCn1c(=O)c2cnc(Nc3ccc(N4CCN(C)CC4)cc3)nc2n1-c1cccc(C(C)(C)O)n1 [adavosertib]	1.37

Same assay, conditions: 0.1 µM; days in culture: 240

SMILES	CTG-3D luminescence at 96 h
CC(C)(C(=O)NCC(F)(F)C(F)(F)F)C(=O)N[C@@H]1C(=O)Nc2ccccc2-c2ccccc21	0.976
CCN(c1cc(C#CCN2CCOCC2)cc(C(=O)NCc2c(C)cc(C)[nH]c2=O)c1C)[C@H]1CC[C@H](N(C)CCOC)CC1	1.12
NC(=O)Nc1cc(-c2cccc(F)c2)sc1C(=O)N[C@H]1CCCNC1 [AZD7762]	1
O=C(/C=C/c1cccnc1)NCCCCC1CCN(C(=O)c2ccccc2)CC1 [FK866]	0.167
CCc1c2c(nc3ccc(O)cc13)-c1cc3c(c(=O)n1C2)COC(=O)[C@]3(O)CC [SN-38]	0.396
CCN1CCN(Cc2ccc(Nc3ncc(F)c(-c4cc(F)c5nc(C)n(C(C)C)c5c4)n3)nc2)CC1 [abemaciclib]	0.897
C=CCn1c(=O)c2cnc(Nc3ccc(N4CCN(C)CC4)cc3)nc2n1-c1cccc(C(C)(C)O)n1 [adavosertib]	0.745

Same assay, conditions: 0.1 µM; days in culture: 260

SMILES	CTG-3D luminescence at 96 h
CC(C)(C(=O)NCC(F)(F)C(F)(F)F)C(=O)N[C@@H]1C(=O)Nc2ccccc2-c2ccccc21	1.23
CCN(c1cc(C#CCN2CCOCC2)cc(C(=O)NCc2c(C)cc(C)[nH]c2=O)c1C)[C@H]1CC[C@H](N(C)CCOC)CC1	1.83
NC(=O)Nc1cc(-c2cccc(F)c2)sc1C(=O)N[C@H]1CCCNC1 [AZD7762]	0.935
O=C(/C=C/c1cccnc1)NCCCCC1CCN(C(=O)c2ccccc2)CC1 [FK866]	0.126
CCc1c2c(nc3ccc(O)cc13)-c1cc3c(c(=O)n1C2)COC(=O)[C@]3(O)CC [SN-38]	0.603
CCN1CCN(Cc2ccc(Nc3ncc(F)c(-c4cc(F)c5nc(C)n(C(C)C)c5c4)n3)nc2)CC1 [abemaciclib]	1.75
C=CCn1c(=O)c2cnc(Nc3ccc(N4CCN(C)CC4)cc3)nc2n1-c1cccc(C(C)(C)O)n1 [adavosertib]	1.44

Same assay, conditions: 0.1 µM; days in culture: 269

SMILES	CTG-3D luminescence at 96 h
CC(C)(C(=O)NCC(F)(F)C(F)(F)F)C(=O)N[C@@H]1C(=O)Nc2ccccc2-c2ccccc21	1.81
CCN(c1cc(C#CCN2CCOCC2)cc(C(=O)NCc2c(C)cc(C)[nH]c2=O)c1C)[C@H]1CC[C@H](N(C)CCOC)CC1	1.27
NC(=O)Nc1cc(-c2cccc(F)c2)sc1C(=O)N[C@H]1CCCNC1 [AZD7762]	1.25
O=C(/C=C/c1cccnc1)NCCCCC1CCN(C(=O)c2ccccc2)CC1 [FK866]	0.0874
CCc1c2c(nc3ccc(O)cc13)-c1cc3c(c(=O)n1C2)COC(=O)[C@]3(O)CC [SN-38]	0.477
CCN1CCN(Cc2ccc(Nc3ncc(F)c(-c4cc(F)c5nc(C)n(C(C)C)c5c4)n3)nc2)CC1 [abemaciclib]	1.38
C=CCn1c(=O)c2cnc(Nc3ccc(N4CCN(C)CC4)cc3)nc2n1-c1cccc(C(C)(C)O)n1 [adavosertib]	1.8

Same assay, conditions: 0.1 µM; days in culture: 327

SMILES	CTG-3D luminescence at 96 h
CC(C)(C(=O)NCC(F)(F)C(F)(F)F)C(=O)N[C@@H]1C(=O)Nc2ccccc2-c2ccccc21	1.77
CCN(c1cc(C#CCN2CCOCC2)cc(C(=O)NCc2c(C)cc(C)[nH]c2=O)c1C)[C@H]1CC[C@H](N(C)CCOC)CC1	1.94
NC(=O)Nc1cc(-c2cccc(F)c2)sc1C(=O)N[C@H]1CCCNC1 [AZD7762]	1.38
O=C(/C=C/c1cccnc1)NCCCCC1CCN(C(=O)c2ccccc2)CC1 [FK866]	0.125
CCc1c2c(nc3ccc(O)cc13)-c1cc3c(c(=O)n1C2)COC(=O)[C@]3(O)CC [SN-38]	0.602
CCN1CCN(Cc2ccc(Nc3ncc(F)c(-c4cc(F)c5nc(C)n(C(C)C)c5c4)n3)nc2)CC1 [abemaciclib]	1.58
C=CCn1c(=O)c2cnc(Nc3ccc(N4CCN(C)CC4)cc3)nc2n1-c1cccc(C(C)(C)O)n1 [adavosertib]	1.68

Same assay, conditions: 0.1 µM; days in culture: 346

SMILES	CTG-3D luminescence at 96 h
CC(C)(C(=O)NCC(F)(F)C(F)(F)F)C(=O)N[C@@H]1C(=O)Nc2ccccc2-c2ccccc21	1.11
CCN(c1cc(C#CCN2CCOCC2)cc(C(=O)NCc2c(C)cc(C)[nH]c2=O)c1C)[C@H]1CC[C@H](N(C)CCOC)CC1	1.4
NC(=O)Nc1cc(-c2cccc(F)c2)sc1C(=O)N[C@H]1CCCNC1 [AZD7762]	0.907
O=C(/C=C/c1cccnc1)NCCCCC1CCN(C(=O)c2ccccc2)CC1 [FK866]	0.063
CCc1c2c(nc3ccc(O)cc13)-c1cc3c(c(=O)n1C2)COC(=O)[C@]3(O)CC [SN-38]	0.483
CCN1CCN(Cc2ccc(Nc3ncc(F)c(-c4cc(F)c5nc(C)n(C(C)C)c5c4)n3)nc2)CC1 [abemaciclib]	1.14
C=CCn1c(=O)c2cnc(Nc3ccc(N4CCN(C)CC4)cc3)nc2n1-c1cccc(C(C)(C)O)n1 [adavosertib]	1.52

Same assay, conditions: 0.1 µM; days in culture: 364

SMILES	CTG-3D luminescence at 96 h
CC(C)(C(=O)NCC(F)(F)C(F)(F)F)C(=O)N[C@@H]1C(=O)Nc2ccccc2-c2ccccc21	1.09
CCN(c1cc(C#CCN2CCOCC2)cc(C(=O)NCc2c(C)cc(C)[nH]c2=O)c1C)[C@H]1CC[C@H](N(C)CCOC)CC1	1.19
NC(=O)Nc1cc(-c2cccc(F)c2)sc1C(=O)N[C@H]1CCCNC1 [AZD7762]	1.03
O=C(/C=C/c1cccnc1)NCCCCC1CCN(C(=O)c2ccccc2)CC1 [FK866]	0.0658
CCc1c2c(nc3ccc(O)cc13)-c1cc3c(c(=O)n1C2)COC(=O)[C@]3(O)CC [SN-38]	0.283
CCN1CCN(Cc2ccc(Nc3ncc(F)c(-c4cc(F)c5nc(C)n(C(C)C)c5c4)n3)nc2)CC1 [abemaciclib]	0.914
C=CCn1c(=O)c2cnc(Nc3ccc(N4CCN(C)CC4)cc3)nc2n1-c1cccc(C(C)(C)O)n1 [adavosertib]	1.17
